Data reported in US6288119A, “11,15-O-dialkylprostaglandin E derivatives, process for producing the same, and drugs containing the same as the active ingredient” (Ono Pharmaceuticals Co., Ltd., priority 1997, dated 2001).

Key:
mouse EP1 = target: T1, mouse EP1 (Mus musculus, UniProt P35375); assay: Binding assay using expression cell of prostanoids receptor subtype, EP1 ([3H]-PGE2 binding inhibition, CHO membrane fraction); conditions: 2.5 nM [3H]-PGE2, 1 hour at room temperature, pH 6.0, read-out: Dissociation Constant Ki, EP1
T1 construct: expressed in transfected cells; host or cells: CHO cells
T1 sequence (P35375 1-405): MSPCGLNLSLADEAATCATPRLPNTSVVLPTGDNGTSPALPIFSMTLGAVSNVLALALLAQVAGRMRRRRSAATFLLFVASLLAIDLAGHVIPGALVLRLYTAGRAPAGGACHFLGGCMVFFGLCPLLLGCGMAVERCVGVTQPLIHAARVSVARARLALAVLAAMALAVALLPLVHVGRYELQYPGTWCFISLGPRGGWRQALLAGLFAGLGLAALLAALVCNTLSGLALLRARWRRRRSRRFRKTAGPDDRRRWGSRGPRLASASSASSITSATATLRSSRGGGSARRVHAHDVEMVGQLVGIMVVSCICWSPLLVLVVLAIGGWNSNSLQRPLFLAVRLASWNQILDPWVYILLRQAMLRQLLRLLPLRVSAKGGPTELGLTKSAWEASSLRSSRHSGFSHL
Protocol: (§1) (i) Binding assay using expression cell of prostanoids receptor subtype
(§2) The preparation of membrane fraction was carried out according to the method of Sugimoto et al. [J. Biol. Chem., 267, 6463-6466 (1992)], using expression CHO cell of the prostanoids receptor subtype (mouse EP1, EP2, EP3α, EP4).
(§3) The standard assay mixture containing membrane fraction (0.5 mg/ml), and [3H]-PGE2 in a final volume of 200 μl was incubated for 1 hour at room temperature. The reaction was terminated by addition of 3 ml of ice-cooled buffer. The mixture was filtered through a GF/B glass filter under reduced pressure. The radioactivity associated with the filter was measured by liquid scintillation counting.
(§4) Kd and Bmax values were determined from Scatchard plots [Ann. N.Y. Acad. Sci., 51, 660 (1949)]. Non-specific binding was calculated as the binding in the presence of an excess (2.5 μM) of unlabeled PGE2. In the measurement of 3H-PGE2 binding inhibitory activity, 2.5 nM of [3H]-PGE2 and various concentrations of the compounds of the present invention were added. The following buffer was used in all reactions.
(§5) Buffer; 10 mM potassium phosphate (pH 6.0), 1 mM EDTA, 10 mM MgCl2, 0.1 M NaCl.
(§6) The dissociation constant Ki (μM) of each compound was calculated by the following equation.

mouse EP2 = target: T2, mouse EP2 (Mus musculus, UniProt Q62053); assay: Binding assay using expression cell of prostanoids receptor subtype, EP2 ([3H]-PGE2 binding inhibition, CHO membrane fraction); conditions: 2.5 nM [3H]-PGE2, 1 hour at room temperature, pH 6.0, read-out: Dissociation Constant Ki, EP2
T2 construct: expressed in transfected cells; host or cells: CHO cells
T2 sequence (Q62053 whole entry): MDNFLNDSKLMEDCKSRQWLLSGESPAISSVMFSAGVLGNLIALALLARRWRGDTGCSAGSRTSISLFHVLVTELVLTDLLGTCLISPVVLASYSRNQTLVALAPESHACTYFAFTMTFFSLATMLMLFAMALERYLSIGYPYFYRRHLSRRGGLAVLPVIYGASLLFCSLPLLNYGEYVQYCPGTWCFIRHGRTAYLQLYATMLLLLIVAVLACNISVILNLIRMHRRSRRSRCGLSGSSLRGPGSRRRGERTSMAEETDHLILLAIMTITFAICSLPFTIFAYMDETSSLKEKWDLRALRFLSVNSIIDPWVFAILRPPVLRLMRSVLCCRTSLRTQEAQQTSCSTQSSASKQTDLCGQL
Protocol: as §1, §2, §3, §4, §5, §6

mouse EP3α = target: T3, mouse EP3α (Mus musculus, UniProt P30557); assay: Binding assay using expression cell of prostanoids receptor subtype, EP3α ([3H]-PGE2 binding inhibition, CHO membrane fraction); conditions: 2.5 nM [3H]-PGE2, 1 hour at room temperature, pH 6.0, read-out: Dissociation Constant Ki, EP3α
T3 construct: expressed in transfected cells; host or cells: CHO cells
T3 sequence (P30557 1-365): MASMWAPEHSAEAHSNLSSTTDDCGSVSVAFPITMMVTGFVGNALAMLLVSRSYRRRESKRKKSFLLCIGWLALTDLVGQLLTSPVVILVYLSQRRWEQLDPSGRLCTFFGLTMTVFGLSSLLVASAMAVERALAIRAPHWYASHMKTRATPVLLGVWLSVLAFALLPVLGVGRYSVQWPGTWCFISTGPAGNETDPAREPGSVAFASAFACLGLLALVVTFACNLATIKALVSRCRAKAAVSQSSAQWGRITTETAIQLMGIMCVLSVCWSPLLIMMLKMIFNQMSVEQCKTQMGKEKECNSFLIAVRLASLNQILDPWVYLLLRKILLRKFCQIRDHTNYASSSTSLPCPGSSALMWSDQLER
Protocol: as §1, §2, §3, §4, §5, §6

mouse EP4 = target: T4, mouse EP4 (Mus musculus, UniProt P32240); assay: Binding assay using expression cell of prostanoids receptor subtype, EP4 ([3H]-PGE2 binding inhibition, CHO membrane fraction); conditions: 2.5 nM [3H]-PGE2, 1 hour at room temperature, pH 6.0, read-out: Dissociation Constant Ki, EP4
T4 construct: expressed in transfected cells; host or cells: CHO cells
T4 sequence (P32240 whole entry): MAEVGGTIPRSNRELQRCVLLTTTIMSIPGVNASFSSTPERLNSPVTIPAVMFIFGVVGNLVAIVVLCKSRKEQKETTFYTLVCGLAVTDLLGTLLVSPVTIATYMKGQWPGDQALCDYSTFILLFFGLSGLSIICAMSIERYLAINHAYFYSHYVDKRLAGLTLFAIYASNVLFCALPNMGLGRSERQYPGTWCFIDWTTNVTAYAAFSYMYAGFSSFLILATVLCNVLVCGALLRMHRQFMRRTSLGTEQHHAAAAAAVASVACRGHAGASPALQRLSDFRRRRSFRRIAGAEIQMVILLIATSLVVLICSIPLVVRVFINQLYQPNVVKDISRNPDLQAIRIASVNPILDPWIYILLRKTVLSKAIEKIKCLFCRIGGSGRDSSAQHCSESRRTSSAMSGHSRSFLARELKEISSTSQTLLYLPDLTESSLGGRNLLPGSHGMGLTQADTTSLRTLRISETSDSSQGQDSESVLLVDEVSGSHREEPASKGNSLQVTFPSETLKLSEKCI
Protocol: as §1, §2, §3, §4, §5, §6

## CCCCC[C@@H](/C=C/[C@H]1[C@H](OC)CC(=O)[C@@H]1CCCCCCC(=O)O)OC [1(a), 11α,15α-Dimethoxy-9-oxoprosta-13E-enoic acid]
Mouse EP1
  Ki: > 10000 nM
Mouse EP2
  Ki: 1100 nM
Mouse EP3α
  Ki: 6.3 nM
Mouse EP4
  Ki: 1.3 µM

## CCCCC[C@@H](/C=C/[C@H]1[C@H](OCC)CC(=O)[C@@H]1C/C=C\CCCC(=O)O)OCC [Example 2, 11α,15α-Diethoxy-9-oxoprosta-5Z,13E -dienoic acid]
Mouse EP1
  Ki: > 10000 nM
Mouse EP2
  Ki: 600 nM
Mouse EP3α
  Ki: 40 nM
Mouse EP4
  Ki: 5.9 µM

## CCCCC[C@@H](/C=C/[C@@H]1[C@@H](C/C=C\CCCC(=O)O)[C@H](Cl)C[C@H]1OC)OC [1(h), 11α,15α-Dimethoxy-9β-chloroprosta-5Z,13E-dienoic acid]
Mouse EP1
  Ki: 39 nM
Mouse EP2
  Ki: 34 nM
Mouse EP3α
  Ki: 1.7 nM
Mouse EP4
  Ki: 0.073 µM

## COC(/C=C/[C@H]1[C@H](OC)CC(=O)[C@@H]1C/C=C\CCCC(=O)O)COc1ccccc1 (stereo partly drawn) [1(f), 11α,15α-Dimethoxy-9-oxo-16-phenoxy-17,18,19,20-tetranorprosta-5Z,13E-dienoic acid]
Mouse EP1
  Ki: 310 nM
Mouse EP2
  Ki: > 10000 nM
Mouse EP3α
  Ki: 2.9 nM
Mouse EP4
  Ki: > 10 µM

## CCCCCC[C@@H](/C=C/[C@H]1[C@H](OC)CC(=O)[C@@H]1C/C=C\CCCC(=O)O)OC [1(e), 11α,15α-Dimethoxy-9-oxo-20-methylprosta-5Z,13E-dienoic acid]
Mouse EP1
  Ki: 2400 nM
Mouse EP2
  Ki: 1300 nM
Mouse EP3α
  Ki: 6.1 nM
Mouse EP4
  Ki: 3.7 µM

## CCCCC(C)(C)[C@@H](/C=C/[C@H]1[C@H](OC)CC(=O)[C@@H]1C/C=C\CCCC(=O)O)OC [1(b), 11α,15α-Dimethoxy-9-oxo-16,16-dimethylprosta-5Z,13E-dienoic acid]
Mouse EP1
  Ki: 970 nM
Mouse EP2
  Ki: 530 nM
Mouse EP3α
  Ki: 2.7 nM
Mouse EP4
  Ki: 2.5 µM

## CCCCC[C@@H](/C=C/[C@H]1[C@H](OC)CC(=O)[C@@H]1C/C=C\CCCC(=O)O)OC [Example 1, 11α,15α-Dimethoxy-9-oxoprosta-5Z,13E-dienoic acid]
Mouse EP1
  Ki: > 10000 nM
Mouse EP2
  Ki: 2400 nM
Mouse EP3α
  Ki: 3.6 nM
Mouse EP4
  Ki: 4.2 µM
